From ChEMBL document CHEMBL1157764, “Conserved high activity binding peptides are involved in adhesion of two detergent-resistant membrane-associated merozoite proteins to red blood cells during invasion” (J Med Chem, 2010)
Where a SMILES comes first, the peptide text is derived from it.

species: Homo sapiens; assay: Binding affinity to RBC membrane receptor in human RBCs assessed as specific binding activity measured as ratio of specifically bound peptide/added peptide by gamma counter

Molecule	Activity [%]
CC[C@H](C)[C@H](NC(=O)[C@@H](N)CCC(=O)O)C(=O)N[C@@H](CO)C(=O)N[C@@H](CCC(=O)O)C(=O)N[C@@H](CS)C(=O)N[C@H](C(=O)N[C@@H](CCC(=O)O)C(=O)N[C@@H](CO)C(=O)N[C@@H](CCC(=O)O)C(=O)N[C@@H](CCC(N)=O)C(=O)N[C@@H](CC(N)=O)C(=O)N[C@@H](CCC(=O)O)C(=O)N[C@H](C(=O)N[C@@H](CCCCN)C(=O)N[C@H](C(=O)N[C@@H](CO)C(=O)N[C@H](C(=O)N[C@H](C(=O)N[C@@H](CS)C(=O)N[C@@H](CC(C)C)C(=O)N[C@@H](Cc1ccc(O)cc1)C(=O)O)[C@@H](C)O)[C@@H](C)O)[C@@H](C)O)C(C)C)C(C)C (H-EISECVESEQNEVKTSTTCLY-OH)	> 2
CC[C@H](C)[C@H](N)C(=O)N[C@@H](Cc1cnc[nH]1)C(=O)N[C@@H](CCCCN)C(=O)N[C@@H](CCCNC(=N)N)C(=O)N[C@@H](CS)C(=O)N[C@@H](CC(N)=O)C(=O)N[C@@H](CC(=O)O)C(=O)N[C@@H](CC(=O)O)C(=O)N[C@H](C(=O)N[C@@H](CCC(=O)O)C(=O)N[C@@H](CCCCN)C(=O)N[C@@H](CCCCN)C(=O)N[C@@H](CS)C(=O)N[C@@H](CC(N)=O)C(=O)NCC(=O)N[C@@H](CC(N)=O)C(=O)N[C@@H](CC(N)=O)C(=O)N[C@@H](CCCCN)C(=O)N[C@@H](CS)C(=O)N[C@H](C(=O)N[C@@H](Cc1ccc(O)cc1)C(=O)O)[C@@H](C)CC)[C@@H](C)CC (H-IHKRCNDDIEKKCNGNNKCIY-OH)	> 2
CC(C)[C@H](NC(=O)[C@H](CC(=O)O)NC(=O)[C@H](CC(=O)O)NC(=O)[C@H](CC(=O)O)NC(=O)[C@H](CO)NC(=O)[C@H](CCC(=O)O)NC(=O)[C@H](CC(N)=O)NC(=O)[C@H](CC(=O)O)NC(=O)[C@H](CCC(N)=O)NC(=O)[C@H](CC(N)=O)NC(=O)[C@H](CCCCN)NC(=O)[C@H](CC(N)=O)NC(=O)[C@H](CCC(=O)O)NC(=O)[C@@H](N)CC(=O)O)C(=O)N[C@@H](CC(N)=O)C(=O)N[C@@H](CC(N)=O)C(=O)N[C@@H](CC(N)=O)C(=O)N[C@@H](CC(N)=O)C(=O)N[C@@H](CC(N)=O)C(=O)N[C@@H](CC(N)=O)C(=O)N[C@@H](Cc1ccc(O)cc1)C(=O)N[C@@H](CC(N)=O)C(=O)N[C@@H](CC(N)=O)C(=O)N[C@@H](CC(=O)O)C(=O)N[C@@H](CC(=O)O)C(=O)O	> 2
H-NDSNDFLKKYAIMGNSFDDG-OH	> 2
H-NKTDNGSSFFFAMSNALLVIY-OH	> 2
H-ILYLEKNNLFNTQASCIKSY-OH	> 2
CC(C)[C@H](NC(=O)[C@H](Cc1ccc(O)cc1)NC(=O)[C@@H](N)CCC(=O)O)C(=O)N[C@@H](CC(N)=O)C(=O)N[C@@H](C)C(=O)N[C@@H](CC(N)=O)C(=O)N[C@@H](CO)C(=O)N[C@@H](CO)C(=O)N[C@@H](CCC(=O)O)C(=O)N[C@@H](CO)C(=O)N[C@@H](CO)C(=O)N[C@@H](CCC(=O)O)C(=O)N[C@@H](CCC(=O)O)C(=O)N[C@@H](CC(=O)O)C(=O)N[C@H](C(=O)N[C@H](C(=O)N1CCC[C@H]1C(=O)N[C@@H](CC(N)=O)C(=O)N[C@@H](CCC(=O)O)C(=O)N[C@H](C(=O)O)[C@@H](C)O)[C@H](C)O)[C@@H](C)O	> 2
H-VHFMAGGQKYKYEGIDLTDS-OH	> 2
H-LFETFDPQYLNTEFNGVSHY-OH	> 2
CC[C@H](C)[C@H](NC(=O)[C@H](CCCNC(=N)N)NC(=O)[C@H](CC(C)C)NC(=O)[C@H](CC(=O)O)NC(=O)[C@H](CCC(=O)O)NC(=O)[C@@H](NC(=O)[C@@H](NC(=O)[C@H](CO)NC(=O)CNC(=O)[C@H](CCCCN)NC(=O)[C@@H](N)CCCCN)[C@@H](C)CC)[C@@H](C)O)C(=O)N[C@H](C(=O)N[C@@H](CC(N)=O)C(=O)N[C@@H](CC(=O)O)C(=O)N[C@@H](CC(C)C)C(=O)N[C@@H](CCC(=O)O)C(=O)N1CCC[C@H]1C(=O)N[C@@H](CC(C)C)C(=O)N[C@@H](CC(=O)O)C(=O)N[C@@H](Cc1ccc(O)cc1)C(=O)O)C(C)C	> 2
CC[C@H](C)[C@H](NC(=O)[C@H](CCCCN)NC(=O)[C@@H](NC(=O)[C@H](Cc1ccc(O)cc1)NC(=O)CNC(=O)[C@H](CCC(=O)O)NC(=O)[C@H](CC(=O)O)NC(=O)[C@H](CO)NC(=O)[C@H](Cc1ccc(O)cc1)NC(=O)[C@H](CC(C)C)NC(=O)[C@H](CC(N)=O)NC(=O)[C@H](CCSC)NC(=O)[C@@H](NC(=O)[C@H](CCC(C)=O)NC(=O)[C@H](CC(N)=O)NC(=O)[C@H](CCCCN)NC(=O)[C@@H](N)Cc1c[nH]c2ccccc12)C(C)C)[C@@H](C)O)C(=O)N[C@@H](CC(N)=O)C(=O)N[C@H](C(=O)N[C@@H](CC(C)C)C(=O)O)[C@@H](C)O	> 2
H-VSKFDNNKTIGFVCPVKSSY-OH	> 2
CC[C@H](C)[C@H](NC(=O)[C@H](CO)NC(=O)[C@H](CCCCN)NC(=O)[C@@H](N)CC(=O)O)C(=O)N[C@H](C(=O)N[C@@H](Cc1cnc[nH]1)C(=O)N[C@@H](Cc1ccccc1)C(=O)N[C@@H](Cc1ccc(O)cc1)C(=O)N[C@@H](CS)C(=O)N[C@@H](CCC(=O)O)C(=O)N[C@@H](CS)C(=O)N[C@@H](CC(N)=O)C(=O)N[C@H](C(=O)N[C@@H](CC(N)=O)C(=O)N[C@@H](CC(N)=O)C(=O)N[C@@H](CC(N)=O)C(=O)N[C@H](C(=O)N[C@H](C(=O)N[C@@H](CCCCN)C(=O)N[C@H](C(=O)O)C(C)C)[C@@H](C)CC)C(C)C)C(C)C)[C@@H](C)CC (H-DKSIIHFYCECNVNNNVIKV-OH)	> 2
H-ISLLLNKKYDSFEIKDVLED-OH	> 2
CC[C@H](C)[C@H](NC(=O)[C@H](CC(=O)O)NC(=O)[C@H](CCCCN)NC(=O)[C@H](CCCNC(=N)N)NC(=O)[C@H](Cc1ccccc1)NC(=O)[C@H](CCCNC(=N)N)NC(=O)[C@@H](NC(=O)[C@@H](NC(=O)[C@@H]1CCCN1C(=O)[C@H](CC(C)C)NC(=O)CN)[C@H](C)O)[C@@H](C)CC)C(=O)N[C@@H](CO)C(=O)N[C@H](C(=O)N[C@@H](CCC(=O)O)C(=O)N[C@@H](CC(N)=O)C(=O)N[C@@H](CC(C)C)C(=O)N[C@H](C(=O)N[C@@H](Cc1ccc(O)cc1)C(=O)N[C@@H](CC(C)C)C(=O)N[C@@H](CC(N)=O)C(=O)O)[C@@H](C)O)C(C)C	> 2
H-EDGEKENKHKSSETTNETVTY-OH	> 2
CC[C@H](NC(=O)[C@H](CC(C)C)NC(=O)[C@H](CCCCN)NC(=O)[C@H](CC(N)=O)NC(=O)[C@H](CC(N)=O)NC(=O)[C@H](Cc1ccc(O)cc1)NC(=O)[C@@H](NC(=O)[C@H](Cc1ccc(O)cc1)NC(=O)[C@H](CCCCN)NC(=O)[C@H](Cc1ccc(O)cc1)NC(=O)[C@@H](NC(=O)[C@H](Cc1ccc(O)cc1)NC(=O)[C@@H](NC(=O)[C@H](Cc1ccc(O)cc1)NC(=O)[C@@H](NC(=O)[C@H](CCCCN)NC(=O)[C@H](CC(N)=O)NC(=O)[C@@H](NC(=O)[C@@H](N)[C@@H](C)O)C(C)C)[C@@H](C)CC)[C@@H](C)O)[C@@H](C)O)[C@@H](C)CC)C(=O)N[C@@H](C)C(=O)O	> 2
CC[C@H](C)[C@H](NC(=O)[C@H](Cc1ccc(O)cc1)NC(=O)[C@@H](N)CC(N)=O)C(=O)N[C@@H](CCC(=O)O)C(=O)N[C@@H](CCC(=O)O)C(=O)N1CCC[C@H]1C(=O)N[C@@H](Cc1ccccc1)C(=O)N[C@@H](CO)C(=O)N[C@H](C(=O)N[C@H](C(=O)N[C@@H](Cc1ccccc1)C(=O)N[C@H](C(=O)N[C@H](C(=O)N[C@@H](CC(C)C)C(=O)N[C@@H](CCC(N)=O)C(=O)N[C@H](C(=O)N[C@@H](CCC(N)=O)C(=O)N[C@@H](CCSC)C(=O)N[C@@H](CC(N)=O)C(=O)O)[C@@H](C)O)[C@@H](C)CC)[C@@H](C)O)[C@@H](C)O)[C@@H](C)O	> 2
H-TSEEKMILIFKCDNKFYITK-OH	> 2
H-NEDNKDLEHGSSNDVNNNTDY-OH	> 2
H-TNTTPAVYSGSLLSMNNDFE-OH	> 2
H-NYYISPFYDENSIKQEINKK-OH	> 2
CC[C@H](C)[C@H](NC(=O)[C@H](CO)NC(=O)[C@H](CCCNC(=N)N)NC(=O)[C@@H](NC(=O)[C@@H](NC(=O)[C@@H](N)CCC(N)=O)[C@@H](C)O)[C@@H](C)CC)C(=O)N[C@@H](C(=O)N[C@@H](CC(C)C)C(=O)N[C@@H](CC(C)C)C(=O)N[C@@H](CS)C(=O)N[C@@H](CO)C(=O)N[C@@H](CC(N)=O)C(=O)N[C@@H](CC(C)C)C(=O)N[C@@H](Cc1cnc[nH]1)C(=O)N[C@@H](CC(=O)O)C(=O)N[C@@H](Cc1c[nH]c2ccccc12)C(=O)N[C@@H](CCCCN)C(=O)N[C@@H](CC(C)C)C(=O)N[C@@H](Cc1ccccc1)C(=O)N[C@@H](CS)C(=O)N[C@@H](Cc1ccc(O)cc1)C(=O)O)[C@@H](C)CC	> 2
CC(C)C[C@H](NC(=O)[C@@H](NC(=O)[C@@H](N)CC(=O)O)C(C)C)C(=O)N[C@@H](CO)C(=O)N[C@@H](CCC(=O)O)C(=O)N[C@@H](CO)C(=O)N[C@@H](CC(N)=O)C(=O)N[C@@H](CC(N)=O)C(=O)N[C@@H](CCC(=O)O)C(=O)N[C@@H](CC(N)=O)C(=O)N[C@@H](CCCCN)C(=O)N[C@@H](CCC(=O)O)C(=O)N[C@H](C(=O)N[C@@H](CO)C(=O)N[C@@H](CC(=O)O)C(=O)N[C@@H](CC(=O)O)C(=O)N[C@@H](C)C(=O)N[C@H](C(=O)N[C@@H](Cc1cnc[nH]1)C(=O)N[C@@H](Cc1ccc(O)cc1)C(=O)O)[C@@H](C)O)[C@@H](C)O	> 2
H-NEQDENVKGMSSSQEMNSNNY-OH	> 2
CC[C@H](C)[C@H](NC(=O)[C@H](CC(=O)O)NC(=O)[C@H](CCCCN)NC(=O)[C@H](CCC(=O)O)NC(=O)[C@H](CC(=O)O)NC(=O)[C@H](CCC(N)=O)NC(=O)[C@@H]1CCCN1C(=O)[C@H](NC(=O)[C@@H](NC(=O)[C@H](CCCCN)NC(=O)[C@H](CC(N)=O)NC(=O)[C@H](NC(=O)[C@H](CCSC)NC(=O)[C@@H](NC(=O)[C@@H](NC(=O)[C@H](CCC(=O)O)NC(=O)[C@H](CCC(N)=O)NC(=O)[C@@H](N)CC(=O)O)[C@@H](C)CC)[C@@H](C)O)[C@@H](C)CC)[C@H](C)O)[C@@H](C)CC)C(=O)N[C@@H](CC(C)C)C(=O)N[C@@H](Cc1ccccc1)C(=O)N[C@@H](Cc1ccc(O)cc1)C(=O)O	> 2
H-EEIGDESTDSSSMEIQDSTSY-OH	> 2
